Assay results taken from ChEMBL document CHEMBL3400058, “Synthesis, anticonvulsant activity and molecular modeling study of some new hydrazinecarbothioamide, benzenesulfonohydrazide, and phenacylacetohydrazide analogues of 4(3H)-quinazolinone” (Bioorg Med Chem Lett, 2015).

Key:
[1] = test system: Mus musculus; experiment: Anticonvulsant activity in mouse assessed as prolongation of convulsions onset time at 150 mg/kg, ip administered 20 mins prior to PTZ challenge relative to control; type: functional; settings: route intraperitoneal
[2] = test system: Mus musculus; experiment: Anticonvulsant activity in mouse assessed as decrease in convulsion frequency at 150 mg/kg, ip administered 20 mins prior to PTZ challenge relative to control; type: functional; parameters: scale not given: the % may be the effect or the level left; settings: route intraperitoneal
[3] = test system: Mus musculus; experiment: Anticonvulsant activity in mouse assessed as delay of death time at 150 mg/kg, ip administered 20 mins prior to PTZ challenge relative to control; type: functional; settings: route intraperitoneal
[4] = test system: Mus musculus; experiment: Anticonvulsant activity in mouse assessed as prolongation of convulsions onset time at 150 mg/kg, ip administered 20 mins prior to picrotoxin challenge relative to control; type: functional; settings: route intraperitoneal
[5] = test system: Mus musculus; experiment: Anticonvulsant activity in mouse assessed as decrease in convulsion frequency at 150 mg/kg, ip administered 20 mins prior to picrotoxin challenge relative to control; type: functional; parameters: scale not given: the % may be the effect or the level left; settings: route intraperitoneal
[6] = test system: Mus musculus; experiment: Anticonvulsant activity in mouse assessed as delay of death time at 150 mg/kg, ip administered 20 mins prior to picrotoxin challenge relative to control; type: functional; settings: route intraperitoneal
[7] = test system: Mus musculus; experiment: Anticonvulsant activity in mouse assessed as prolongation of convulsions onset time at 50 mg/kg, ip administered 20 mins prior to PTZ challenge relative to control; type: functional; settings: route intraperitoneal
[8] = test system: Mus musculus; experiment: Anticonvulsant activity in mouse assessed as decrease in convulsion frequency at 50 mg/kg, ip administered 20 mins prior to PTZ challenge relative to control; type: functional; parameters: scale not given: the % may be the effect or the level left; settings: route intraperitoneal
[9] = test system: Mus musculus; experiment: Anticonvulsant activity in mouse assessed as delay of death time at 50 mg/kg, ip administered 20 mins prior to PTZ challenge relative to control; type: functional; settings: route intraperitoneal
[10] = organism: Mus musculus; experiment: Protective index, ratio of TD50 for mouse to ED50 for anticonvulsant activity in mouse
[11] = Therapeutic index, ratio of LD50 for mouse to ED50 for anticonvulsant activity in mouse; type: organism-based; settings: in vivo, read-out: Ratio LD50/ED50
[12] = test system: Mus musculus; experiment: Anticonvulsant activity in mouse assessed as protection against PTZ-induced convulsions at 50 mg/kg, ip administered 20 mins prior to PTZ challenge relative to control; type: functional; settings: route intraperitoneal
[13] = test system: Mus musculus; experiment: Anticonvulsant activity in mouse assessed as protection against PTZ-induced convulsions at 150 mg/kg, ip administered 20 mins prior to PTZ challenge relative to control; type: functional; settings: route intraperitoneal
[14] = test system: Mus musculus; experiment: Toxicity in mouse at 150 mg/kg, […] 20 mins prior to PTZ challenge relative to control; type: organism-based; parameters: dose 150 mg/kg; settings: in vivo

## CCCCC(=O)NNC(=O)CSc1nc2ccc(Cl)cc2c(=O)n1-c1ccccc1
[1]
  Activity: 114%
[2]
  Activity: 87%
[3]
  Activity: 47%

## CSc1nc2ccc(Cl)cc2c(=O)n1-c1ccccc1
[1]
  Activity: 114%
[2]
  Activity: 0%
[3]
  Activity: 44%

## COc1cc2nc(SC)n(-c3ccccc3)c(=O)c2cc1OC
[1]
  Activity: 35%
[2]
  Activity: 0%
[3]
  Activity: 461%

## CSc1nc2ccc(Cl)cc2c(=O)n1Cc1ccccc1
[1]
  Activity: 114%
[2]
  Activity: 61%
[3]
  Activity: 5%
[4]
  Activity: 36%
[5]
  Activity: 91%
[6]
  Activity: 0%

## CCOC(=O)CSc1nc2ccc(Cl)cc2c(=O)n1-c1ccccc1
[1]
  Activity: 0%
[2]
  Activity: 0%

## CCOC(=O)CSc1nc2ccc(Cl)cc2c(=O)n1Cc1ccccc1
[1]
  Activity: 0%
[2]
  Activity: 0%
[4]
  Activity: 5%
[5]
  Activity: 25%
[6]
  Activity: 17%

## O=C(CSc1nc2ccc(Cl)cc2c(=O)n1-c1ccccc1)NNC(=S)NCc1ccccc1
[1]
  Activity: 114%
[2]
  Activity: 0%
[3]
  Activity: 145%

## O=C(CSc1nc2ccc(Cl)cc2c(=O)n1Cc1ccccc1)NNC(=S)Nc1ccccc1
[1]
  Activity: 0%
[2]
  Activity: 0%

## O=C(CSc1nc2ccc(Cl)cc2c(=O)n1Cc1ccccc1)NNC(=S)NCc1ccccc1
[1]
  Activity: 471%
[2]
  Activity: 61%
[3]
  Activity: 101%
[4]
  Activity: 15%
[5]
  Activity: 39%
[6]
  Activity: 25%

## COc1cc2nc(SCC(=O)NNC(=S)Nc3ccccc3)n(Cc3ccccc3)c(=O)c2cc1OC
[1]
  Activity: 150%
[2]
  Activity: 81%
[3]
  Activity: 5%
[4]
  Activity: 4%
[5]
  Activity: 89%
[6]
  Activity: 25%

## COc1cc2nc(SCC(=O)NNC(=S)NCc3ccccc3)n(Cc3ccccc3)c(=O)c2cc1OC
[1]
  Activity: 43%
[2]
  Activity: 38%
[3]
  Activity: 32%
[4]
  Activity: 78%
[5]
  Activity: 66%
[6]
  Activity: 22%

## Cc1ccc(S(=O)(=O)NNC(=O)CSc2nc3ccc(Cl)cc3c(=O)n2-c2ccccc2)cc1
[1]
  Activity: 43%
[2]
  Activity: 48%
[3]
  Activity: 40%

## Cc1ccc(S(=O)(=O)NNC(=O)CSc2nc3ccc(Cl)cc3c(=O)n2Cc2ccccc2)cc1
[1]
  Activity: 43%
[2]
  Activity: 74%
[3]
  Activity: 47%

## COc1cc2nc(SCC(=O)NNS(=O)(=O)c3ccc(C)cc3)n(Cc3ccccc3)c(=O)c2cc1OC
[1]
  Activity: 43%
[2]
  Activity: 0%

## CC(=O)NNC(=O)CSc1nc2ccc(Cl)cc2c(=O)n1-c1ccccc1
[1]
  Activity: 186%
[2]
  Activity: 48%
[3]
  Activity: 216%

## CCC(=O)NNC(=O)CSc1nc2ccc(Cl)cc2c(=O)n1-c1ccccc1
[7]
  Activity: 1471%
[8]
  Activity: 74%
[9]
  Activity: 636%
[10]
  Ratio TD50/ED50: 8.5
[11]
  selectivity ratio: 24.6
[12]
  Activity: 100%

## CCCC(=O)NNC(=O)CSc1nc2ccc(Cl)cc2c(=O)n1-c1ccccc1
[1]
  Activity: 43%
[2]
  Activity: 82%
[3]
  Activity: 75%

## O=C(CSc1nc2ccc(Cl)cc2c(=O)n1-c1ccccc1)NNC(=O)c1ccccc1
[1]
  Activity: 114%
[2]
  Activity: 87%
[3]
  Activity: 0%

## O=C(CSc1nc2ccc(Cl)cc2c(=O)n1-c1ccccc1)NNC(=O)Cc1ccccc1
[7]
  Activity: 43%
[8]
  Activity: 0%

## O=C(CCc1ccccc1)NNC(=O)CSc1nc2ccc(Cl)cc2c(=O)n1-c1ccccc1
[1]
  Activity: 43%
[2]
  Activity: 0%

## CC(=O)NNC(=O)CSc1nc2ccc(Cl)cc2c(=O)n1Cc1ccccc1
[3]
  Activity: 303%
[13]
  Activity: 100%
[10]
  Ratio TD50/ED50: 8.7
[11]
  selectivity ratio: 9.7
[4]
  Activity: 63%
[5]
  Activity: 60%
[6]
  Activity: 50%

## CCC(=O)NNC(=O)CSc1nc2ccc(Cl)cc2c(=O)n1Cc1ccccc1
[1]
  Activity: 43%
[2]
  Activity: 74%
[3]
  Activity: 0%

## CCCC(=O)NNC(=O)CSc1nc2ccc(Cl)cc2c(=O)n1Cc1ccccc1
[1]
  Activity: 78%
[2]
  Activity: 61%
[3]
  Activity: 14%
[4]
  Activity: 0%

## CCCCC(=O)NNC(=O)CSc1nc2ccc(Cl)cc2c(=O)n1Cc1ccccc1
[1]
  Activity: 0%
[2]
  Activity: 0%

## COc1cc2nc(SCC(=O)NNC(C)=O)n(Cc3ccccc3)c(=O)c2cc1OC
[1]
  Activity: 0%
[2]
  Activity: 0%

## CCC(=O)NNC(=O)CSc1nc2cc(OC)c(OC)cc2c(=O)n1Cc1ccccc1
[1]
  Activity: 471%
[2]
  Activity: 81%
[3]
  Activity: 216%
[13]
  Activity: 100%
[10]
  Ratio TD50/ED50: 4.1
[11]
  selectivity ratio: 5.1
[4]
  Activity: 11%
[5]
  Activity: 79%
[6]
  Activity: 8%

## CCCC(=O)NNC(=O)CSc1nc2cc(OC)c(OC)cc2c(=O)n1Cc1ccccc1
[1]
  Activity: 114%
[2]
  Activity: 0%
[3]
  Activity: 58%

## CCCCC(=O)NNC(=O)CSc1nc2cc(OC)c(OC)cc2c(=O)n1Cc1ccccc1
[1]
  Activity: 0%
[2]
  Activity: 0%

## O=C(CSc1nc2ccc(Cl)cc2c(=O)n1Cc1ccccc1)NNC(=O)c1ccccc1
[1]
  Activity: 185%
[2]
  Activity: 23%
[3]
  Activity: 75%

## O=C(CSc1nc2ccc(Cl)cc2c(=O)n1Cc1ccccc1)NNC(=O)Cc1ccccc1
[1]
  Activity: 43%
[2]
  Activity: 61%
[3]
  Activity: 47%

## O=C(CCc1ccccc1)NNC(=O)CSc1nc2ccc(Cl)cc2c(=O)n1Cc1ccccc1
[1]
  Activity: 685%
[2]
  Activity: 74%
[3]
  Activity: 254%
[13]
  Activity: 100%
[10]
  Ratio TD50/ED50: 4.6
[11]
  selectivity ratio: 9.8

## COc1cc2nc(SCC(=O)NNC(=O)c3ccccc3)n(Cc3ccccc3)c(=O)c2cc1OC
[1]
  Activity: 0%
[2]
  Activity: 0%

## COc1cc2nc(SCC(=O)NNC(=O)Cc3ccccc3)n(Cc3ccccc3)c(=O)c2cc1OC
[1]
  Activity: 186%
[2]
  Activity: 68%
[3]
  Activity: 58%
[4]
  Activity: 18%
[5]
  Activity: 97%
[6]
  Activity: 17%

## COc1cc2nc(SCC(=O)NNC(=O)CCc3ccccc3)n(Cc3ccccc3)c(=O)c2cc1OC
[1]
  Activity: 114%
[2]
  Activity: 81%
[3]
  Activity: 0%

## COc1cc2nc(SC)n(Cc3ccccc3)c(=O)c2cc1OC
[14]
  Activity: Toxic

## CCCC(CCC)C(=O)[O-].[Na+] [VALPROATE SODIUM]
[12]
  Activity: 100%
